Where a name gives a salt, the structure may show the parent alone.
What was measured:
mexB (PA) strain = experiment: Combinational effect with antibacterial agent against Pseudomonas aeruginosa (Test Examples 2 and 4): mexB (PA) strain with LVFX, TC or AZT at 1/4 MIC, EC99; assay type: cell-based; conditions: for EC99, mexB (PA), AZT / EC99, mexB (PA), LVFX / EC99, mexB (PA), TC: Table 52, Test Example 2, 16 to 20 hours culture, OD595
Procedure: (§1) The combinational effect of the test compound with the antibacterial agent against Pseudomonas aeruginosa was evaluated.
For the evaluation of the inhibitory ability against MexAB-OprM, a mutant strain of Pseudomonas aeruginosa in which MexAB-OprM was expressed as a main drug efflux pump (hereinafter, referred to as a “mexB (PA) strain”) was used. LVFX, TC, or AZT was used as the antibacterial agent used in combination.
The mexB (PA) strain is a strain produced by deleting the genes of MexCD-OprJ, MexEF-OprN, and MexXY in the drug efflux pump of Pseudomonas aeruginosa described in FEMS Microbiology Letters, 2001, Vol. 202, pp. 139 to 143. In the mexB (PA) strain, an expression level of MexB as a drug efflux pump is accelerated.
TC is a tetracycline-based antibacterial agent and is a drug that is discharged outside the bacteria by MexB. AZT is a monobactam-based antibacterial agent and is a drug that is discharged outside the bacteria by MexB.
(§2) AMK and GM are aminoglycoside-based antibacterial agents, and are drugs that are not discharged outside the bacteria by MexB but are discharged outside the bacteria by MexY For the culture of each Pseudomonas aeruginosa strain, a 96-well plate (amount of culture medium per well: 100 μL) was used, and cation-adjusted Mueller Hinton broth (CAMHB) was used. The inoculation amount of the bacteria was set to 10^4 to 5 CFU/well.
(§3) The mexB (PA) strain and the S-3769 strain were cultured for 16 to 20 hours in a culture medium to which each antibacterial agent and test compounds at various concentrations (0 to 800 μM) were added, and the proliferation of the bacterial strains was evaluated by optical turbidity at 595 nm (OD595). The concentration of the antibacterial agent in the culture medium was set to ¼ MIC.
(§4) The proliferation of bacteria in a case where the test compound and the antibacterial agent were not added was measured, and compared with the proliferation of bacteria in a case where the test compound in a case where the antibacterial agent was added at the concentration of ¼ MIC was contained, and the lowest concentration of the test compound at which the proliferation was inhibited by 99% or more was defined as the drug efflux pump inhibitory ability of the test compound as 99% inhibitory effect concentration (EC99).
(§5) The effect of suppressing the proliferation of each test compound in combination with an antibacterial agent at ¼ MIC for mexB (PA) or the S-3769 strain was evaluated as follows according to the value of EC99. • S: EC99≤12.5 μM • A: 12.5 μM<EC99≤25 μM • B: 25 μM<EC99≤100 μM • C: 100 μM<EC99
(§6) The combinational effect of the test compound with the antibacterial agent against Pseudomonas aeruginosa was evaluated in the same manner as in Test Example 2.

S-3769 strain = experiment: Combinational effect with antibacterial agent against Pseudomonas aeruginosa (Test Examples 2 and 4): S-3769 strain with AMK or GM at 1/4 MIC, EC99; assay type: cell-based; conditions: for EC99, S-3769 strain, AMK / EC99, S-3769 strain, GM: Table 52, Test Example 2, 16 to 20 hours culture, OD595
Procedure: as §1
The […] was used for evaluating the inhibitory ability against MexXY-OprM. AMK or GM was used as the antibacterial agent used in combination.
The S-3769 strain is a clinically isolated strain collected from a domestic medical institution, and is a strain in which the expression level of MexY is accelerated.
as §2, §3, §4, §5, §6

| SMILES | EC99, mexB (PA), AZT (mexB (PA) strain; combined with AZT at 1/4 MIC) | EC99, mexB (PA), LVFX (mexB (PA) strain; combined with LVFX at 1/4 MIC) | further results |
| --- | --- | --- | --- |
| CCOc1cccc(F)c1CN1CCN(C(=O)[C@H](N)C2CCN(CCc3cc(Cl)ccc3-c3cncs3)CC2)CC1 [Example 504, Hydrobromide of (R)-2-amino-2-(1-(5-chloro-2-(thiazol-5-yl)phenethyl)piperidin-4-yl)-1-(4-(2-ethoxy-6-fluorobenzyl)piperazin-1-yl)ethan-1-one] |  |  | EC99, combinational effect with AZT, mexB (PA) (mexB (PA) strain; mexB (PA) strain, combined with AZT at 1/4 MIC, Test Example 4): B (25 μM<EC99≤100 μM); EC99, combinational effect with LVFX, mexB (PA) (mexB (PA) strain; mexB (PA) strain, combined with LVFX at 1/4 MIC, Test Example 4): B (25 μM<EC99≤100 μM); EC99, combinational effect with TC, mexB (PA) (mexB (PA) strain; mexB (PA) strain, combined with TC at 1/4 MIC, Test Example 4): B (25 μM<EC99≤100 μM); EC99, combinational effect with AMK, S-3769 strain (S-3769 strain; S-3769 strain, combined with AMK at 1/4 MIC, Test Example 4): A (12.5 μM<EC99≤25 μM); EC99, combinational effect with GM, S-3769 strain (S-3769 strain; S-3769 strain, combined with GM at 1/4 MIC, Test Example 4): A (12.5 μM<EC99≤25 μM) |
| CCOc1cccc(F)c1CN1CCN(C(=O)[C@H](N)C2CCN(CCc3cc(Cl)ccc3-c3cccc(C#N)c3)CC2)CC1 [Example 65, Hydrobromide of (R)-2′-(2-(4-(1-amino-2-(4-(2-ethoxy-6-fluorobenzyl)piperazin-1-yl)-2-oxoethyl)piperidin-1-yl)ethyl)-4′-chloro-[1,1′-biphenyl]-3-carbonitrile] | B (25 μM<EC99≤100 μM) | C (100 μM<EC99) | EC99, mexB (PA), TC (mexB (PA) strain; combined with TC at 1/4 MIC): B (25 μM<EC99≤100 μM); EC99, S-3769 strain, AMK (S-3769 strain; combined with AMK at 1/4 MIC): A (12.5 μM<EC99≤25 μM); EC99, S-3769 strain, GM (S-3769 strain; combined with GM at 1/4 MIC): A (12.5 μM<EC99≤25 μM) |
| CCOc1cccc(F)c1CN1CCN(C(=O)[C@H](N)C2CCN(CCc3cc(C(F)(F)F)ccc3-c3ccccc3)CC2)CC1 [Example 83, Hydrobromide of (R)-2-amino-1-(4-(2-ethoxy-6-fluorobenzyl)piperazin-1-yl)-2-(1-(2-(4-(trifuluoromethyl)-[1,1′-biphenyl]-2-yl)ethyl)piperidin-4-yl) ethan-1-one] | B (25 μM<EC99≤100 μM) | B (25 μM<EC99≤100 μM) | EC99, mexB (PA), TC (mexB (PA) strain; combined with TC at 1/4 MIC): B (25 μM<EC99≤100 μM); EC99, S-3769 strain, AMK (S-3769 strain; combined with AMK at 1/4 MIC): B (25 μM<EC99≤100 μM); EC99, S-3769 strain, GM (S-3769 strain; combined with GM at 1/4 MIC): B (25 μM<EC99≤100 μM) |
| CCSc1cccc(F)c1CN1CCN(C(=O)[C@H](N)C2CCN(CCc3cc(Cl)ccc3-c3ccccc3)CC2)CC1 [Example 27, (R)-2-amino-2-(1-(2-(4-chloro-[1,1′-biphenyl]-2-yl)ethyl)piperidin-4-yl)-1-(4-(2-(ethylthio)-6-fluorobenzyl)piperazin-1-yl)ethan-1-one] | A (12.5 μM<EC99≤25 μM) | A (12.5 μM<EC99≤25 μM) | EC99, mexB (PA), TC (mexB (PA) strain; combined with TC at 1/4 MIC): S (EC99≤12.5 μM); EC99, S-3769 strain, AMK (S-3769 strain; combined with AMK at 1/4 MIC): S (EC99≤12.5 μM); EC99, S-3769 strain, GM (S-3769 strain; combined with GM at 1/4 MIC): S (EC99≤12.5 μM) |
| CCOc1cccc(F)c1CN1CCN(C(=O)[C@H](N)C2CCN(CCc3ccccc3F)CC2)CC1 [Example 121, Hydrochloride of (R)-2-amino-1-(4-(2-ethoxy-6-fluorobenzyl)piperazin-1-yl)-2-(1-(2-fluorophenethyl)piperidin-4-yl)ethan-1-one] | C (100 μM<EC99) | C (100 μM<EC99) | EC99, mexB (PA), TC (mexB (PA) strain; combined with TC at 1/4 MIC): C (100 μM<EC99); EC99, S-3769 strain, AMK (S-3769 strain; combined with AMK at 1/4 MIC): B (25 μM<EC99≤100 μM); EC99, S-3769 strain, GM (S-3769 strain; combined with GM at 1/4 MIC): B (25 μM<EC99≤100 μM) |
| COc1ccccc1CN1CCN(C(=O)[C@H](N)C2CCN(CCc3cccc(Cl)c3)CC2)CC1 [Example 140, hydrochloride of (R)-2-amino-2-(1-(3-chlorophenethyl)piperidin-4-yl)-1-(4-(2-methoxybenzyl)piperazin-1-yl)ethan-1-one] | C (100 μM<EC99) | C (100 μM<EC99) |  |
| O=C(CN1CCN(CCc2ccccc2)CC1)N1CCN(Cc2ccccc2OC(F)F)CC1 [Example 200, hydrochloride of 1-(4-(2-(difluoromethoxy)benzyl)piperazin-1-yl)-2-(4-phenethylpiperazin-1-yl)ethan-1-one] | B (25 μM<EC99≤100 μM) | B (25 μM<EC99≤100 μM) |  |
| COc1cccc(F)c1CN1CCN(C(=O)CN2CCN(CCc3ccccc3)CC2)CC1 [Example 215, hydrochloride of 1-(4-(2-fluoro-6-methoxybenzyl)piperazin-1-yl)-2-(4-phenethylpiperazin-1-yl)ethan-1-one] | A (12.5 μM<EC99≤25 μM) | S (EC99≤12.5 μM) |  |
| COc1ccccc1CN1CCN(C(=O)CN2CCN(CCC3CCCCC3)CC2)CC1 [Example 275, 2-(4-(2-Cyclohexylethyl)piperazin-1-yl)-1-(4-(2-methoxybenzyl)piperazin-1-yl) ethan-1-one and hydrochloride thereof] | S (EC99≤12.5 μM) | A (12.5 μM<EC99≤25 μM) |  |
| COc1ccccc1CN1CCN(C(=O)[C@H](N)C2CCN(CCc3ccc(Cl)s3)CC2)CC1 [Example 134, Hydrochloride of (R)-2-amino-2-(1-(2-(5-chlorothiophen-2-yl)ethyl)piperidin-4-yl)-1-(4-(2-methoxybenzyl)piperazin-1-yl) ethan-1-one] | C (100 μM<EC99) | C (100 μM<EC99) |  |
| COc1ccccc1CN1CCN(C(=O)CN2CCC(C#N)(CCc3ccccc3)CC2)CC1 [Example 401, Hydrochloride of 1-(2-(4-(2-methoxybenzyl)piperazin-1-yl)-2-oxoethyl)-4-phenethylpiperidine-4-carbonitrile] | B (25 μM<EC99≤100 μM) | C (100 μM<EC99) |  |
| CCOc1cccc(F)c1CN1CCN(C(=O)[C@H](N)C2CCN(CCc3ccccc3)CC2)CC1 [Example 114, Hydrochloride of (R)-2-amino-1-(4-(2-ethoxy-6-fluorobenzyl)piperazin-1-yl)-2-(1-phenethylpiperidin-4-yl)ethan-1-one] | C (100 μM<EC99) | C (100 μM<EC99) |  |
| COc1ccccc1CN1CCN(C(=O)CN2CCC(N(C)Cc3ccccc3)CC2)CC1 [Example 420, hydrochloride of 2-(4-(benzyl(methyl)amino)piperidin-1-yl)-1-(4-(2-methoxybenzyl)piperazin-1-yl)ethan-1-one] | C (100 μM<EC99) | C (100 μM<EC99) | EC99, mexB (PA), TC (mexB (PA) strain; combined with TC at 1/4 MIC): C (100 μM<EC99) |
| COc1ccc(F)c(F)c1CN1CCN(C(=O)CN2CCN(CCc3ccccc3)CC2)CC1 [Example 247, Hydrochloride of 1-(4-(2,3-difluoro-6-methoxybenzyl)piperazin-1-yl)-2-(4-phenethylpiperazin-1-yl)ethan-1-one] | A (12.5 μM<EC99≤25 μM) | B (25 μM<EC99≤100 μM) |  |
| CCOc1ccccc1CN1CCN(C(=O)CN2CCN(CCc3ccccc3)CC2)CC1 [Example 220, Hydrochloride of 1-(4-(2-ethoxybenzyl)piperazin-1-yl)-2-(4-phenethylpiperazin-1-yl) ethan-1-one] |  | S (EC99≤12.5 μM) |  |
| COc1ccccc1CN1CCN(C(=O)C(C)N2CCN(CCc3ccccc3)CC2)CC1 (stereo not shown) [Example 261, hydrochloride of 1-(4-(2-methoxybenzyl)piperazin-1-yl)-2-(4-phenethylpiperazin-1-yl)propan-1-one] | A (12.5 μM<EC99≤25 μM) | B (25 μM<EC99≤100 μM) |  |
| COc1ccsc1CN1CCN(C(=O)CN2CCN(CCc3ccccc3)CC2)CC1 [Example 249, Hydrochloride of 1-(4-((3-methoxythiophen-2-yl)methyl)piperazin-1-yl)-2-(4-phenethylpiperazin-1-yl)ethan-1-one] | C (100 μM<EC99) | C (100 μM<EC99) |  |
